From patent US8574563B2 (Bristol-Myers Squibb Company, priority 2006, dated 2013)

system: HCV 1b-377-neo replicon cells; experiment: HCV replicon assay, HCV 1b-377-neo replicon cells (1b FRET); assay type: cell-based, Hepatitis C virus genotype 1b; conditions: Hepatitis C virus, HCV 1b-377-neo replicon cells; HCV 1b genotype; read-out: EC50 range against HCV 1b (Table 2, Range)
Method in brief: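 Compounds tested in HCV genotype 1b-377-neo replicon cells with a FRET read-out. Cells resistant to a reference NS5A inhibitor through a Y2065H NS5A mutation were run alongside wild-type cells.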

Compared with CN1CCN(C(=O)N[C@@H](C(=O)N2CCC[C@H]2c2ncc(-c3ccc(-c4ccc(-c5cnc([C@@H]6CCCN6C(=O)[C@H](NC(=O)N6CCN(C)CC6)c6ccccc6)[nH]5)cc4)cc3)[nH]2)c2ccccc2)CC1 [Example 25-7, N,N′-(4,4′-biphenyldiylbis(1H-imidazole-5,2-diyl(2S)-2,1-pyrrolidinediyl((1R)-2-oxo-1-phenyl-2,1-ethanediyl)))bis(4-methyl-1-piperazinecarboxamide)], CN(C)CC(=O)N[C@@H](C(=O)N1CCC[C@H]1c1ncc(-c2ccc(-c3ccc(-c4cnc([C@@H]5CCCN5C(=O)[C@H](NC(=O)CN(C)C)c5ccccc5)[nH]4)cc3)cc2)[nH]1)c1ccccc1 [Example 25-5, N,N′-(4,4′-biphenyldiylbis(1H-imidazole-5,2-diyl(2S)-2,1-pyrrolidinediyl((1R)-2-oxo-1-phenyl-2,1-ethanediyl)))bis(2-(dimethylamino)acetamide)] is lower in EC50: 1 to 99 nM for the first, 0.001 to 0.999 nM for the second. The second is the more potent here.

COC(=O)N[C@@H](C(=O)N(C)[C@@H](C)c1ncc(-c2ccc(-c3ccc(-c4cnc([C@H](C)N(C)C(=O)[C@H](NC(=O)OC)c5ccccc5)[nH]4)cc3)cc2)[nH]1)c1ccccc1 [Example 24-18-1, dimethyl (4,4′-biphenyldiylbis(1H-imidazole-5,2-diyl(1S)-1,1-ethanediyl(methylimino)((1R)-2-oxo-1-phenyl-2,1-ethanediyl)))biscarbamate] and CNC(=O)c1nc([C@@H]2CCCN2C(=O)[C@H](NC(=O)OC)c2ccccc2)[nH]c1-c1ccc(-c2ccc(-c3cnc([C@@H]4CCCN4C(=O)[C@H](NC(=O)OC)c4ccccc4)[nH]3)cc2)cc1 [Example J25, methyl ((1R)-2-((2S)-2-(5-(4′-(2-((2S)-1-((2R)-2-((methoxycarbonyl)amino)-2-phenylacetyl)-2-pyrrolidinyl)-1H-imidazol-5-yl)-4-biphenylyl)-4-(methylcarbamoyl)-1H-imidazol-2-yl)-1-pyrrolidinyl)-2-oxo-1-phenylethyl)carbamate] fall in the same range of EC50: 0.001 to 0.999 nM for the first, 0.001 to 0.999 nM for the second.

COC(=O)N[C@@H](Cc1c[nH]c2ccccc12)C(=O)N1CCC[C@H]1c1ncc(-c2ccc(-c3ccc(-c4cnc([C@@H]5CCCN5C(=O)[C@@H](NC(=O)OC)[C@@H](C)OC)[nH]4)cc3)cc2)[nH]1 [cj-100, methyl ((1S)-1-(1H-indol-3-ylmethyl)-2-((2S)-2-(5-(4′-(2-((2S)-1-((2S,3R)-3-methoxy-2-((methoxycarbonyl)amino)butanoyl)-2-pyrrolidinyl)-1H-imidazol-5-yl)-4-biphenylyl)-1H-imidazol-2-yl)-1-pyrrolidinyl)-2-oxoethyl)carbamate] and COC(=O)N[C@H](C(=O)N1CCC[C@H]1c1ncc(-c2ccc(-c3ccc(-c4cnc([C@@H]5CCCN5C(=O)CNCc5ccccc5)[nH]4)cc3)cc2)[nH]1)C(C)C [LS22, methyl ((1S)-1-(((2S)-2-(5-(4′-(2-((2S)-1-(N-benzylglycyl)-2-pyrrolidinyl)-1H-imidazol-5-yl)-4-biphenylyl)-1H-imidazol-2-yl)-1-pyrrolidinyl)carbonyl)-2-methylpropyl)carbamate] fall in the same range of EC50: 0.001 to 0.999 nM for the first, 0.001 to 0.999 nM for the second.

COC(=O)N[C@H](C(=O)N1CCC[C@H]1c1nc(C)c(-c2ccc(-c3ccc(-c4nc([C@@H]5CCCN5C(=O)[C@@H](NC(=O)OC)[C@@H](C)OC)[nH]c4C)cc3)cc2)[nH]1)C(C)OC (stereo in doubt) [Example E5m, methyl ((1S,2R)-2-methoxy-1-(((2S)-2-(4-(4′-(2-((2S)-1-(N-(methoxycarbonyl)-O-methyl-L-threonyl)-2-pyrrolidinyl)-5-methyl-1H-imidazol-4-yl)-4-biphenylyl)-5-methyl-1H-imidazol-2-yl)-1-pyrrolidinyl)carbonyl)propyl)carbamate] and COC(=O)Cc1[nH]c([C@@H]2CCCN2C(=O)[C@@H](NC(=O)OC)C(C)C)nc1-c1ccc(-c2ccc(-c3cnc([C@@H]4CCCN4C(=O)[C@@H](NC(=O)OC)C(C)C)[nH]3)cc2)cc1 [Example J14b.1, methyl (2-((2S)-1-(N-(methoxycarbonyl)-L-valyl)-2-pyrrolidinyl)-4-(4′-(2-((2S)-1-(N-(methoxycarbonyl)-L-valyl)-2-pyrrolidinyl)-1H-imidazol-4-yl)-4-biphenylyl)-1H-imidazol-5-yl)acetate] fall in the same range of EC50: 0.001 to 0.999 nM for the first, 0.001 to 0.999 nM for the second.

CCN(CC)[C@@H](C(=O)N1CCC[C@H]1c1ncc(-c2ccc(-c3ccc(-c4cnc([C@@H]5CCCN5C(=O)[C@H](Cc5ccncc5)NC(=O)OC)[nH]4)cc3)cc2)[nH]1)c1ccccc1 [cj-89, methyl ((1S)-2-((2S)-2-(5-(4′-(2-((2S)-1-((2R)-2-(diethylamino)-2-phenylacetyl)-2-pyrrolidinyl)-1H-imidazol-5-yl)-4-biphenylyl)-1H-imidazol-2-yl)-1-pyrrolidinyl)-2-oxo-1-(4-pyridinylmethyl)ethyl)carbamate] and CCN(CC)[C@@H](C(=O)N1CCC[C@H]1c1ncc(-c2ccc(-c3ccc(-c4cnc([C@@H]5CCCN5C(=O)[C@H](Cc5cncn5C)NC(=O)OC)[nH]4)cc3)cc2)[nH]1)c1ccccc1 [cj-44, methyl ((1S)-2-((2S)-2-(5-(4′-(2-((2S)-1-((2R)-2-(diethylamino)-2-phenylacetyl)-2-pyrrolidinyl)-1H-imidazol-5-yl)-4-biphenylyl)-1H-imidazol-2-yl)-1-pyrrolidinyl)-1-((1-methyl-1H-imidazol-5-yl)methyl)-2-oxoethyl)carbamate] fall in the same range of EC50: 0.001 to 0.999 nM for the first, 0.001 to 0.999 nM for the second.

CC(C)(C)OC(=O)N1CCC(C(=O)N2CCC[C@H]2c2ncc(-c3ccc(-c4ccc(-c5cnc([C@@H]6CCCN6C(=O)[C@@H](c6ccccc6)N6CCCCC6)[nH]5)cc4)cc3)[nH]2)CC1 [Example 107-9, tert-butyl 4-(((2S)-2-(5-(4′-(2-((2S)-1-((2R)-2-phenyl-2-(1-piperidinyl)acetyl)-2-pyrrolidinyl)-1H-imidazol-5-yl)-4-biphenylyl)-1H-imidazol-2-yl)-1-pyrrolidinyl)carbonyl)-1-piperidinecarboxylate] and CC(C)(C)OC(=O)N1CCC(C)(C(=O)N2CCC[C@H]2c2ncc(-c3ccc(-c4ccc(-c5cnc([C@@H]6CCCN6C(=O)[C@@H](c6ccccc6)N6CCCCC6)[nH]5)cc4)cc3)[nH]2)CC1 [Example 107-14, tert-butyl 4-methyl-4-(((2S)-2-(5-(4′-(2-((2S)-1-((2R)-2-phenyl-2-(1-piperidinyl)acetyl)-2-pyrrolidinyl)-1H-imidazol-5-yl)-4-biphenylyl)-1H-imidazol-2-yl)-1-pyrrolidinyl)carbonyl)-1-piperidinecarboxylate] fall in the same range of EC50: 0.001 to 0.999 nM for the first, 0.001 to 0.999 nM for the second.

Compared with CCOC(=O)N[C@H](C)C(=O)N1CCC[C@H]1c1ncc(-c2ccc(-c3ccc(-c4cnc([C@@H]5CCCN5C(=O)[C@@H](C)NC(=O)OCC)[nH]4)cc3)cc2)[nH]1 [Example M4, ethyl ((1R)-2-((2S)-2-(5-(4′-(2-((2S)-1-(N-(ethoxycarbonyl)-D-alanyl)-2-pyrrolidinyl)-1H-imidazol-5-yl)-4-biphenylyl)-1H-imidazol-2-yl)-1-pyrrolidinyl)-1-methyl-2-oxoethyl)carbamate], COC(=O)N[C@@H]1CC[C@H](C(=O)N2CCC[C@H]2c2ncc(-c3ccc(-c4ccc(-c5cnc([C@@H]6CCCN6C(=O)[C@H](NC(=O)OC)c6ccccc6)[nH]5)cc4)cc3)[nH]2)C1 [cj-64, methyl ((1R)-2-((2S)-2-(5-(4′-(2-((2S)-1-(((1S,3R)-3-((methoxycarbonyl)amino)cyclopentyl)carbonyl)-2-pyrrolidinyl)-1H-imidazol-5-yl)-4-biphenylyl)-1H-imidazol-2-yl)-1-pyrrolidinyl)-2-oxo-1-phenylethyl)carbamate] is lower in EC50: 100 to 999 nM for the first, 0.001 to 0.999 nM for the second.

COC(=O)N[C@@H](C(=O)N1CCC[C@H]1c1ncc(-c2ccc(-c3ccc(-c4cnc([C@@H]5CCCN5C(=O)Cc5ccncc5)[nH]4)cc3)cc2)[nH]1)c1ccccc1 [Example 48, methyl ((1R)-2-oxo-1-phenyl-2-((2S)-2-(5-(4′-(2-((2S)-1-(4-pyridinylacetyl)-2-pyrrolidinyl)-1H-imidazol-5-yl)-4-biphenylyl)-1H-imidazol-2-yl)-1-pyrrolidinyl)ethyl)carbamate] and COC(=O)N[C@@H](C(=O)N1CCC[C@H]1c1ncc(-c2ccc(-c3ccc(-c4cnc([C@@H]5CCCN5C(=O)[C@H]5CCCN5C)[nH]4)cc3)cc2)[nH]1)c1ccccc1 [Example 51, methyl ((1R)-2-((2S)-2-(5-(4′-(2-((2S)-1-(1-methyl-D-prolyl)-2-pyrrolidinyl)-1H-imidazol-5-yl)-4-biphenylyl)-1H-imidazol-2-yl)-1-pyrrolidinyl)-2-oxo-1-phenylethyl)carbamate] fall in the same range of EC50: 0.001 to 0.999 nM for the first, 0.001 to 0.999 nM for the second.

First: O=C(C(c1ccccc1)c1ccccc1)N1CCC[C@H]1c1ncc(-c2ccc(-c3ccc(-c4cnc([C@@H]5CCCN5C(=O)[C@@H](c5ccccc5)N5CCCCC5)[nH]4)cc3)cc2)[nH]1 [Example 107-6, 1-((1R)-2-((2S)-2-(5-(4′-(2-((2S)-1-(diphenylacetyl)-2-pyrrolidinyl)-1H-imidazol-5-yl)-4-biphenylyl)-1H-imidazol-2-yl)-1-pyrrolidinyl)-2-oxo-1-phenylethyl) piperidine]
Second: CCC(=O)N[C@H](C(=O)N1CCC[C@H]1c1nc(-c2ccc(-c3ccc(-c4c[nH]c([C@@H]5CCCN5C(=O)[C@@H](NC(=O)CC)C(C)C)n4)cc3)cc2)c[nH]1)C(C)C [Example F61, N-((1S)-2-methyl-1-(((2S)-2-(4-(4′-(2-((2S)-1-((2S)-3-methyl-2-(propionylamino)butanoyl)-2-pyrrolidinyl)-1H-imidazol-4-yl)-4-biphenylyl)-1H-imidazol-2-yl)-1-pyrrolidinyl)carbonyl)propyl)propanamide]
The EC50 of the first is lower: 0.001 to 0.999 nM for the first, 1 to 99 nM for the second. The first is the more potent here.

In the case of COC(=O)N[C@H](C(=O)N1CC(F)(F)C[C@H]1c1ncc(-c2ccc(-c3ccc(-c4cnc([C@@H]5CC(F)(F)CN5C(=O)[C@@H](NC(=O)OC)C(C)C)[nH]4)cc3)cc2)[nH]1)C(C)C [OL-7, methyl ((1S)-1-(((2S)-2-(4-(4′-(2-((2S)-4,4-difluoro-1-((2S)-2-((methoxycarbonyl)amino)-3-methylbutanoyl)-2-pyrrolidinyl)-1H-imidazol-4-yl)-4-biphenylyl)-1H-imidazol-2-yl)-4,4-difluoro-1-pyrrolidinyl)carbonyl)-2-methylpropyl)carbamate], the EC50 is reported as 0.001 to 0.999 nM.
